Key:
Test in all cases: relative viability (nuclei count vs DMSO), 5 days (fraction); higher = more cells survive
[1] = compound: C1CC1C(=O)NC2=NNC3=C2C=CC(=C3)C4=CC(=CC=C4)C(=O)NC5CC5 [XMD13-2] + Cc1cc(Nc2cc(N3CCN(C)CC3)nc(Sc3ccc(NC(=O)C4CC4)cc3)n2)n[nH]1 [Tozasertib] (partner 0.1 µM)
Procedure, shortened: (§1)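 For relative viability, nuclei counts in treated wells were divided by those in vehicle wells. Lung cancer cell lines had been pin-tool dosed in 1536-well plates the day after seeding and cultured for 5 days, then fixed and stained in one step (final 0.05% Triton X-100, 1% formaldehyde, 1 ug/ml Hoechst) and imaged at 4×. Doses were one drug alone or a fixed anchor-drug dose plus five library-drug doses (not always all listed) in √10 steps, and values are duplicate-plate medians.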

[2] = compound: Cc1ccc(C(=O)Nc2cccc(C(F)(F)F)c2)cc1Nc1cncc(C(N)=O)c1 [ALW-II-49-7] + CC(C)C[C@H](NC(=O)[C@H](Cc1ccccc1)NC(=O)c1cnccn1)B(O)O [Bortezomib] (partner 0.002 µM)
Procedure, shortened: as §1

[3] = compound: Cc1ccc(C(=O)Nc2cccc(C(F)(F)F)c2)cc1Nc1cncc(C(N)=O)c1 [ALW-II-49-7] + C[C@@H](Oc1cc(-c2cnn(C3CCNCC3)c2)cnc1N)c1c(Cl)ccc(F)c1Cl [Crizotinib] (partner 1 µM)
Procedure, shortened: as §1

[4] = compound: Cc1nc(Nc2ncc(C(=O)Nc3c(C)cccc3Cl)s2)cc(N2CCN(CCO)CC2)n1 [Dasatinib] + O=C(CCCCCCC(=O)Nc1ccccc1)NO [Vorinostat] (partner 1 µM)
Procedure, shortened: as §1

Cell Line	relative viability ([1]; first compound 0.05 µM)	relative viability ([1]; first compound 0.1581 µM)	relative viability ([1]; first compound 0.5 µM)	relative viability ([1]; first compound 1.581 µM)	relative viability ([1]; first compound 5 µM)	relative viability ([2]; first compound 0.08 µM)	relative viability ([2]; first compound 0.253 µM)	relative viability ([2]; first compound 0.8 µM)	relative viability ([2]; first compound 2.53 µM)	relative viability ([2]; first compound 8 µM)	relative viability ([3]; first compound 0.08 µM)	relative viability ([3]; first compound 0.253 µM)	relative viability ([3]; first compound 0.8 µM)	relative viability ([3]; first compound 2.53 µM)	relative viability ([3]; first compound 8 µM)	relative viability ([4]; first compound 0.005 µM)	relative viability ([4]; first compound 0.01581 µM)	relative viability ([4]; first compound 0.05 µM)	relative viability ([4]; first compound 0.1581 µM)	relative viability ([4]; first compound 0.5 µM)
201T	1.02	0.921	0.867	0.872	0.828	1.1	1.13	1.09	1.08	1.06	1.04	1.08	1.04	1.06	1.04	0.912	0.723	0.792	0.649	0.346
A549	–	–	–	–	–	–	–	–	–	–	0.753	0.852	0.596	0.754	0.624	–	–	–	–	–
A-427	0.213	0.199	0.2	0.159	0.195	1.1	0.95	0.967	1.02	1.05	1.01	0.816	0.855	0.878	0.969	0.831	0.766	0.793	0.517	0.495
ABC-1	0.187	0.2	0.163	0.213	0.205	0.414	0.34	0.31	0.318	0.287	0.978	0.92	0.838	1.05	1.03	1.18	1.17	0.731	0.787	0.706
BEN	0.512	0.436	0.491	0.488	0.42	0.851	0.828	0.789	–	0.875	0.722	0.866	0.81	–	0.834	0.577	0.445	0.417	0.371	0.368
CAL-12T	0.344	0.41	0.307	0.31	0.368	0.923	–	–	0.978	0.721	0.537	0.625	0.686	0.62	0.385	1.02	0.846	0.708	0.477	0.225
COR-L23	0.232	0.18	0.197	0.18	0.185	1.13	0.784	0.95	0.866	1.11	0.688	0.601	0.626	0.614	0.793	0.419	0.342	0.323	0.237	0.24
COR-L 105	0.374	0.385	0.339	0.376	0.425	0.802	0.681	0.826	0.587	0.767	0.737	0.805	0.864	0.653	0.72	0.891	0.58	0.683	0.445	0.363
Calu-6	–	–	–	–	–	1.18	0.95	1.04	0.785	0.885	0.736	0.737	0.718	0.904	0.554	–	–	–	–	–
